The source made the active and inactive calls.
Experiments:
[1] = biological target: Mitogen-activated protein kinase 7 (Homo sapiens, UniProt Q13164)
[2] = biological target: T1, Mitogen-activated protein kinase 15 (Homo sapiens, UniProt Q8TD08)
T1 sequence (Q8TD08 whole entry): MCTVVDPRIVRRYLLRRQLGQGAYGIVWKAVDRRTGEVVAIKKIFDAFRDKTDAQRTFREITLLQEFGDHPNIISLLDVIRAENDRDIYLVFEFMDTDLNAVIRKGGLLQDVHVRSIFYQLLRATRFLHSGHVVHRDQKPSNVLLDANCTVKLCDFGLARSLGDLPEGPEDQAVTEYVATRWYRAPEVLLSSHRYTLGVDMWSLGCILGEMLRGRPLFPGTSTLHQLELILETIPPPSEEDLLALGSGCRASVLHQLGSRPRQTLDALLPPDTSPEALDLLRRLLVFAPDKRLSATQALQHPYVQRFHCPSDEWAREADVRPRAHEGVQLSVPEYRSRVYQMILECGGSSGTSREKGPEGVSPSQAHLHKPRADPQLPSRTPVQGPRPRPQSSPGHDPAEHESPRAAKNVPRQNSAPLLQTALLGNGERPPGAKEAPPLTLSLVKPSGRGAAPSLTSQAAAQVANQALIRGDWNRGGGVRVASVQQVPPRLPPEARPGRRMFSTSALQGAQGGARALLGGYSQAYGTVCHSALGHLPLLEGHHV

[3] = biological target: T2, Serine/threonine-protein kinase D2 (Homo sapiens, UniProt Q9BZL6)
T2 sequence (Q9BZL6 whole entry): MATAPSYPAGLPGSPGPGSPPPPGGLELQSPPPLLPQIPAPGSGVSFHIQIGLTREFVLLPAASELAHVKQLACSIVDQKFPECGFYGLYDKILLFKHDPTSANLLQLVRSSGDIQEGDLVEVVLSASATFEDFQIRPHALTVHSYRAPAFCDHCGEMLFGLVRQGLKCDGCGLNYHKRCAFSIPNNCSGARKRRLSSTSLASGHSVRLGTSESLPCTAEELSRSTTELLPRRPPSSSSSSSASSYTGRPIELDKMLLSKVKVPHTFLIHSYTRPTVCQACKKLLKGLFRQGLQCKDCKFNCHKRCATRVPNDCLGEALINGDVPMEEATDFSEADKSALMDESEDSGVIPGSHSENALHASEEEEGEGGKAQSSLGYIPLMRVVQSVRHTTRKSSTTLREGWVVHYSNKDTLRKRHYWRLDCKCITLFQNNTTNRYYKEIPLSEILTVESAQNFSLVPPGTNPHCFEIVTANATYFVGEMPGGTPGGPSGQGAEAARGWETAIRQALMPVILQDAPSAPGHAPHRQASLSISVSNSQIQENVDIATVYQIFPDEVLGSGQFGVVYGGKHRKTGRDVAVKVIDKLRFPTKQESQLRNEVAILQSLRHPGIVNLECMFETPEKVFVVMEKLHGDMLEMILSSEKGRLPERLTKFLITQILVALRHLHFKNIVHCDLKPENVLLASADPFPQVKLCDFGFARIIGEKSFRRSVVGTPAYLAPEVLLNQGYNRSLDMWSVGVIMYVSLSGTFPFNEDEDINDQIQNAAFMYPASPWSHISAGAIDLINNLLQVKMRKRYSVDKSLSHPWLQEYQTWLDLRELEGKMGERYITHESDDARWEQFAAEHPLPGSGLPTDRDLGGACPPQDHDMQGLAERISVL

[4] = biological target: Mitogen-activated protein kinase 3 (Homo sapiens, UniProt P27361)
[5] = biological target: Cyclin-dependent kinase 12 (Homo sapiens, UniProt Q9NYV4)
[6] = biological target: Dual specificity mitogen-activated protein kinase kinase 2 (Homo sapiens, UniProt P36507)
Obg-like ATPase 1 = Obg-like ATPase 1 (Homo sapiens, UniProt Q9NTK5)
[7] = biological target: Mitogen-activated protein kinase 8 (Homo sapiens, UniProt P45983)
[8] = biological target: RAC-gamma serine/threonine-protein kinase (Homo sapiens, UniProt Q9Y243)
[9] = biological target: T3, Cysteine--tRNA ligase, cytoplasmic (Homo sapiens, UniProt P49589)
T3 sequence (P49589 whole entry): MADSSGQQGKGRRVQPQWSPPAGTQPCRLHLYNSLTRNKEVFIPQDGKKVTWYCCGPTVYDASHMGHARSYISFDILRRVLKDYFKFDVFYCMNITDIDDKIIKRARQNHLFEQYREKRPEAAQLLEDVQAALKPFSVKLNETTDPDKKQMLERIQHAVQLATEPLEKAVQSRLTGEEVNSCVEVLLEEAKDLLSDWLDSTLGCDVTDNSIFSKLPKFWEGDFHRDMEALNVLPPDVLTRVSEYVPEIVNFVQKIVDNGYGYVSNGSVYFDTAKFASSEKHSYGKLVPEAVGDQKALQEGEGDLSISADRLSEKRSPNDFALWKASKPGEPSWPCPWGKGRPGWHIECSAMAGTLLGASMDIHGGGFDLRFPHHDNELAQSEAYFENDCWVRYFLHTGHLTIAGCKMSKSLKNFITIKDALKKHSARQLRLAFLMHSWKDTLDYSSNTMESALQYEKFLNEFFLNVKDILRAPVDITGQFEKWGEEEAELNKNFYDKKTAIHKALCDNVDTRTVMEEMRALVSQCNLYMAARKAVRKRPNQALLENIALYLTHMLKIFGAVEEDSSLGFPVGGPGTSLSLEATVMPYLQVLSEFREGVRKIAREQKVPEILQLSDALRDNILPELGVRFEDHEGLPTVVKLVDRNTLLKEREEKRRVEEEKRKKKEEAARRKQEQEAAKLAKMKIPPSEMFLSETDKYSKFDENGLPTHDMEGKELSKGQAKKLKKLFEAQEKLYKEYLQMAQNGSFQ
Note: in the data inactive means no Kd found up to 30 µM.

Sequence of Mitogen-activated protein kinase 3 (P27361 whole entry): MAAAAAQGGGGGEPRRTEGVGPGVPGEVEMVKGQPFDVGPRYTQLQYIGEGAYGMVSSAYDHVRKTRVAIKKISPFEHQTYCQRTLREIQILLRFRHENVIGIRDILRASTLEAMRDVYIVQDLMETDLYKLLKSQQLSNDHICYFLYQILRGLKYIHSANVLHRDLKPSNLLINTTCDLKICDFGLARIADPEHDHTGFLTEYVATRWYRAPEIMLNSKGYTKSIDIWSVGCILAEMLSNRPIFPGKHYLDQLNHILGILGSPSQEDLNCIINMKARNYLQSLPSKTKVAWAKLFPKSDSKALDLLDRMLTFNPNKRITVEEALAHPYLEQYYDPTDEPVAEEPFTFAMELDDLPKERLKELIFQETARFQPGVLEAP
Sequence of Cyclin-dependent kinase 12 (Q9NYV4 whole entry): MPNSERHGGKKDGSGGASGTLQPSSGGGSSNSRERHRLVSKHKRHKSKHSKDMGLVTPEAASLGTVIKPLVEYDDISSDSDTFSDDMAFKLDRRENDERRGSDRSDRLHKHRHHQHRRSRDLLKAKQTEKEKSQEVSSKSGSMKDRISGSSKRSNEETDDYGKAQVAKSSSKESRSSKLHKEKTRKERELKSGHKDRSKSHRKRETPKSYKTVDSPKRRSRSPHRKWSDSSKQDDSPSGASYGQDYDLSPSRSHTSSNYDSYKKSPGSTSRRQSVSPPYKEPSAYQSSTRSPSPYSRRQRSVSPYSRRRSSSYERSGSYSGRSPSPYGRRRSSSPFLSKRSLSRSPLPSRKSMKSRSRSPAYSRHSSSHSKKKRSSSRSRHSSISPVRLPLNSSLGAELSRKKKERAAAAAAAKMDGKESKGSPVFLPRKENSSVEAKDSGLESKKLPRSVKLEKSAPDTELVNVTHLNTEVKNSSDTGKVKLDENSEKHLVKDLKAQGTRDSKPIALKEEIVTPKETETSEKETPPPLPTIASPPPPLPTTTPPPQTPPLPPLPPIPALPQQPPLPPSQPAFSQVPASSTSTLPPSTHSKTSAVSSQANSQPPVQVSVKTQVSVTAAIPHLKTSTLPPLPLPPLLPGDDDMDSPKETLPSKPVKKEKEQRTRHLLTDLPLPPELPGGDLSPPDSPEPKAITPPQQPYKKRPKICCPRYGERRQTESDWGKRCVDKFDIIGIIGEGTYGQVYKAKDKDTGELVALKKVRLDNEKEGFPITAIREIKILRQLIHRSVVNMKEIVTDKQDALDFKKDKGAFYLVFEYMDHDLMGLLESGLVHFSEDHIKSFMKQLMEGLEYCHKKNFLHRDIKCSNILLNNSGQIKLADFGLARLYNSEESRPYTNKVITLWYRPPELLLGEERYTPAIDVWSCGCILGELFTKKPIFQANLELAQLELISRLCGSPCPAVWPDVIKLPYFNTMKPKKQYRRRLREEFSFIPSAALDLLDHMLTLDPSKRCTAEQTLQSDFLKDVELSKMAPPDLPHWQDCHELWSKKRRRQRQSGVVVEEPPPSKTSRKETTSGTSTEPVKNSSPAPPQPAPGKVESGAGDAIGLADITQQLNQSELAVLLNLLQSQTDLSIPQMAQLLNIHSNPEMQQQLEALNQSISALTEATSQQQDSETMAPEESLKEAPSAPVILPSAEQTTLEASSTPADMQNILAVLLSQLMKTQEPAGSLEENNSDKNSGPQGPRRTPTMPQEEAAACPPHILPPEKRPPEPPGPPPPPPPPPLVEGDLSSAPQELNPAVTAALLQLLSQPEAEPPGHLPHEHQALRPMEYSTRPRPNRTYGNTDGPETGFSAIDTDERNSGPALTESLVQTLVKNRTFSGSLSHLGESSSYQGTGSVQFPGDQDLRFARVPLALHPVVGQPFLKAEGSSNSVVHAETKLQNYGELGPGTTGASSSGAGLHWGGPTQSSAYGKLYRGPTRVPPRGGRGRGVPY
Sequence of Mitogen-activated protein kinase 8 (P45983 whole entry): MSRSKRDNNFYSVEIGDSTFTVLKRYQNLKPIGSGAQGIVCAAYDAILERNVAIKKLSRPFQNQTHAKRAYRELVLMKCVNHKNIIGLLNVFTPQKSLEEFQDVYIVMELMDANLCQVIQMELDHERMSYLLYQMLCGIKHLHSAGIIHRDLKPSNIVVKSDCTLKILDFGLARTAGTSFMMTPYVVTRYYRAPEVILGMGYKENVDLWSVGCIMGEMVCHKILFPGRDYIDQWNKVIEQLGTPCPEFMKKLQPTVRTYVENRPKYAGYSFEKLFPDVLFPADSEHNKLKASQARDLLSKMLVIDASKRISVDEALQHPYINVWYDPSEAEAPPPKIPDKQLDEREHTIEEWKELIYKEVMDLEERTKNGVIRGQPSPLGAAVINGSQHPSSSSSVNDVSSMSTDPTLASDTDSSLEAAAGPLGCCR
Sequence of Obg-like ATPase 1 (Q9NTK5 whole entry, looked up): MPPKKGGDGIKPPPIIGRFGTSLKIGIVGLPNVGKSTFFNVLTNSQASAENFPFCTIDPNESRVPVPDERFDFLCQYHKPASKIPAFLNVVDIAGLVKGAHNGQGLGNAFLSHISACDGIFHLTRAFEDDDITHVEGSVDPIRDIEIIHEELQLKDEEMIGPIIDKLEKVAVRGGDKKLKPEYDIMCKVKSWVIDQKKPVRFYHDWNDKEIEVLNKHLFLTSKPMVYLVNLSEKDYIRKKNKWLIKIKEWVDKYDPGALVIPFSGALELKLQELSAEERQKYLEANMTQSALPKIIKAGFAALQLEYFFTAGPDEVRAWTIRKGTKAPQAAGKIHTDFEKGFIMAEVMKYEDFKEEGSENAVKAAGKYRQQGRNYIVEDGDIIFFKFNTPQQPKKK
Sequence of Dual specificity mitogen-activated protein kinase kinase 2 (P36507 whole entry): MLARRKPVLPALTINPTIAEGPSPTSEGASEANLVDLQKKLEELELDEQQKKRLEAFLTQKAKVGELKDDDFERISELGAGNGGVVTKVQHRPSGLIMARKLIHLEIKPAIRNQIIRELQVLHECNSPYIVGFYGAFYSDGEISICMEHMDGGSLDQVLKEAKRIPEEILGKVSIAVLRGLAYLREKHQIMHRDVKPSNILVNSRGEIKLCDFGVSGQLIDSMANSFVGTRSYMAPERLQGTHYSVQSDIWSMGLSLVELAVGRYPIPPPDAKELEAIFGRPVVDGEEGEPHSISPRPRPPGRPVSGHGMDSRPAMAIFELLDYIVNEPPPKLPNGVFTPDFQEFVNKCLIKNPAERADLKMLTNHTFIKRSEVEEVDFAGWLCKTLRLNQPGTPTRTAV
Sequence of RAC-gamma serine/threonine-protein kinase (Q9Y243 whole entry): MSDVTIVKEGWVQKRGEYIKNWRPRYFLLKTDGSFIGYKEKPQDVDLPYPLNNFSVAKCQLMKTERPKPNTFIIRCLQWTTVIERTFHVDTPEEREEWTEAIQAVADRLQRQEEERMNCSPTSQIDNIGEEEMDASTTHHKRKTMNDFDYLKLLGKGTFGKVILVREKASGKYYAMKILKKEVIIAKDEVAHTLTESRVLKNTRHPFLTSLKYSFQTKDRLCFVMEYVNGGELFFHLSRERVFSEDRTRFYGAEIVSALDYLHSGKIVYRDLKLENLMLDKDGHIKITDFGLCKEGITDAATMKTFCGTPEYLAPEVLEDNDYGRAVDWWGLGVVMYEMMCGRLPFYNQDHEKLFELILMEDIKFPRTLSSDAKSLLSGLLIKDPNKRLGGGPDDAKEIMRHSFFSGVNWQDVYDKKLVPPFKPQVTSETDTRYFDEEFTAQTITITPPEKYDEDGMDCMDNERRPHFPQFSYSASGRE
Sequence of Mitogen-activated protein kinase 7 (Q13164 whole entry): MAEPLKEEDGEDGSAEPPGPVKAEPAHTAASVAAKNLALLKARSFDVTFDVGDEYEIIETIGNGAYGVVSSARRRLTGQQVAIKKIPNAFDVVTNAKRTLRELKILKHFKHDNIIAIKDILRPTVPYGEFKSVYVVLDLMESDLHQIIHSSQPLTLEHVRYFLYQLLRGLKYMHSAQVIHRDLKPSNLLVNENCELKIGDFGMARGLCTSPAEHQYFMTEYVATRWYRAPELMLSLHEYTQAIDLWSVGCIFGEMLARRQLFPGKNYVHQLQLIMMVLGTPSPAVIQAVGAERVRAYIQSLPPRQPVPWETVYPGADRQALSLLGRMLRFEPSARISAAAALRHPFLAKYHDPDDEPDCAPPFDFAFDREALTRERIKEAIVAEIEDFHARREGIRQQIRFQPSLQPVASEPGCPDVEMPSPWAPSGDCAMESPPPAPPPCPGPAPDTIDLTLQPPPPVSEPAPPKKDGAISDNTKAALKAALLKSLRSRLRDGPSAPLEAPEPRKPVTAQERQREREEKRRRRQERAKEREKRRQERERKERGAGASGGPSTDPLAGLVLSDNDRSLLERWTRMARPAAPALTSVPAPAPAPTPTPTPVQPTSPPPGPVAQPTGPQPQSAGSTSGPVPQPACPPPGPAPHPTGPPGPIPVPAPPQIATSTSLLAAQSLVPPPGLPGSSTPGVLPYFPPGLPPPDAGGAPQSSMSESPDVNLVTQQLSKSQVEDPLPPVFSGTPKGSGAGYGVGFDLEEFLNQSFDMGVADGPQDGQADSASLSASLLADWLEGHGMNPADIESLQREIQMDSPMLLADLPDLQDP

Kd [1] | Kd [3] | Kd [4] | Kd [5] | Kd [6] | Kd (Obg-like ATPase 1) | Kd [7] | Kd [8] | Kd [9] | Compound | Kd [2]
> 30 µM (inactive) | > 30 µM (inactive) | > 30 µM (inactive) | > 30 µM (inactive) | 0.038 µM (active) | > 30 µM (inactive) | > 30 µM (inactive) | > 30 µM (inactive) | > 30 µM (inactive) | O=C(NC[C@H](O)CO)c1ccncc1Nc1ccc(I)cc1F [PIMASERTIB] | > 30 µM (inactive)
> 30 µM (inactive) | > 30 µM (inactive) | > 30 µM (inactive) | > 30 µM (inactive) | > 30 µM (inactive) |  | > 30 µM (inactive) | > 30 µM (inactive) | > 30 µM (inactive) | O=C(Nc1ccc(OC(F)(F)F)cc1)c1sccc1NCc1ccnc2ccccc12 [OSI-930] | > 30 µM (inactive)
> 30 µM (inactive) | > 30 µM (inactive) | > 30 µM (inactive) | > 30 µM (inactive) | > 30 µM (inactive) | > 30 µM (inactive) | 2.01 µM (active) | > 30 µM (inactive) | > 30 µM (inactive) | COc1cc(Nc2ncc(F)c(Nc3ccc4c(n3)N(COP(=O)(O)O)C(=O)C(C)(C)O4)n2)cc(OC)c1OC [FOSTAMATINIB] | > 30 µM (inactive)
> 30 µM (inactive) | > 30 µM (inactive) | > 30 µM (inactive) | > 30 µM (inactive) | > 30 µM (inactive) | > 30 µM (inactive) | > 30 µM (inactive) | > 30 µM (inactive) |  | CNC(=O)c1cc(COc2nnc(Nc3ccc(Cl)cc3)c3ccoc23)ccn1 [TELATINIB] | > 30 µM (inactive)
> 30 µM (inactive) | > 30 µM (inactive) | > 30 µM (inactive) | > 30 µM (inactive) | > 30 µM (inactive) | > 30 µM (inactive) | > 30 µM (inactive) | > 30 µM (inactive) | > 30 µM (inactive) | COc1ccc(-c2ccc3ncc4c(c3c2)n(-c2ccc(N3CCNCC3)c(C(F)(F)F)c2)c(=O)n4C)cn1 [BGT-226 FREE BASE] | > 30 µM (inactive)
> 30 µM (inactive) | > 30 µM (inactive) | > 30 µM (inactive) | > 30 µM (inactive) | > 30 µM (inactive) |  | > 30 µM (inactive) | > 30 µM (inactive) | > 30 µM (inactive) | FC(F)(F)c1ccc(CNc2ccc(Cc3c[nH]c4ncc(Cl)cc34)cn2)cn1 [PEXIDARTINIB] | > 30 µM (inactive)
> 30 µM (inactive) | > 30 µM (inactive) | > 30 µM (inactive) | > 30 µM (inactive) | > 30 µM (inactive) | > 30 µM (inactive) | > 30 µM (inactive) | > 30 µM (inactive) |  | C=CC(=O)Nc1cccc(Nc2nc(Nc3ccc(N4CCN(C(C)=O)CC4)cc3OC)ncc2C(F)(F)F)c1 [ROCILETINIB] | > 30 µM (inactive)
> 30 µM (inactive) | > 30 µM (inactive) | > 30 µM (inactive) | > 30 µM (inactive) | > 30 µM (inactive) |  | > 30 µM (inactive) | > 30 µM (inactive) | > 30 µM (inactive) | O=C(O)c1ccc2c(c1)nc(Nc1cccc(Cl)c1)c1ccncc12 [SILMITASERTIB] | > 30 µM (inactive)
> 30 µM (inactive) | > 30 µM (inactive) | > 30 µM (inactive) | > 30 µM (inactive) | 0.02 µM (active) | > 30 µM (inactive) | > 30 µM (inactive) | > 30 µM (inactive) |  | Cn1c(=O)c(F)c(Nc2ccc(I)cc2F)c2c(=O)n(C[C@@H](O)CO)cnc21 [TAK-733] | > 30 µM (inactive)
> 30 µM (inactive) | > 30 µM (inactive) | > 30 µM (inactive) | > 30 µM (inactive) | > 30 µM (inactive) | > 30 µM (inactive) | > 30 µM (inactive) | > 30 µM (inactive) |  | Cc1cc(-c2cc(OC(=O)c3ccccc3)ccc2Cl)cc2nnc(Nc3ccc(OCCN4CCCC4)cc3)nc12 [TG100-801] | > 30 µM (inactive)
> 30 µM (inactive) | > 30 µM (inactive) | > 30 µM (inactive) | > 30 µM (inactive) | > 30 µM (inactive) | > 30 µM (inactive) | > 30 µM (inactive) |  |  | Cc1cc(C(=O)Nc2cc(Oc3ccc4nc(NC(=O)C5CC5)cn4n3)ccc2C)n(C)n1 [TAK-593] | > 30 µM (inactive)

Compound | Kd [1] | Kd [3] | Kd [4] | Kd [5] | Kd [6] | Kd (Obg-like ATPase 1) | Kd [7] | Kd [8] | Kd [9] | Kd [2]
CC(C)CC(=O)Nc1[nH]nc2c1CN(C(=O)C1CCN(C)CC1)C2(C)C [PHA-793887] | > 30 µM (inactive) | 0.103 µM (active) |  | 3.66 µM (active) | > 30 µM (inactive) | > 30 µM (inactive) | > 30 µM (inactive) | > 30 µM (inactive) | > 30 µM (inactive) | 0.264 µM (active)
Cc1c(NC(=O)OC[C@@H]2COCCN2)cn2ncnc(Nc3ccc4c(cnn4Cc4cccc(F)c4)c3)c12 [AC-480] | > 30 µM (inactive) | > 30 µM (inactive) | > 30 µM (inactive) | > 30 µM (inactive) | > 30 µM (inactive) | > 30 µM (inactive) | > 30 µM (inactive) | > 30 µM (inactive) |  | > 30 µM (inactive)
NC[C@@](O)(c1ccc(Cl)cc1)c1ccc(-c2cn[nH]c2)cc1 [AT-13148] |  | > 30 µM (inactive) | > 30 µM (inactive) | > 30 µM (inactive) | > 30 µM (inactive) | > 30 µM (inactive) | > 30 µM (inactive) |  | > 30 µM (inactive) | > 30 µM (inactive)
CCc1nc(C(N)=O)c(Nc2ccc(N3CCC(N4CCN(C)CC4)CC3)c(OC)c2)nc1NC1CCOCC1 [GILTERITINIB] | > 30 µM (inactive) | > 30 µM (inactive) | > 30 µM (inactive) | > 30 µM (inactive) | 0.502 µM (active) |  | 0.736 µM (active) | > 30 µM (inactive) | > 30 µM (inactive) | 0.263 µM
CN1CCN(c2nc(C3=C(c4c[nH]c5ccccc45)C(=O)NC3=O)c3ccccc3n2)CC1 [SOTRASTAURIN] | > 30 µM (inactive) | > 30 µM (inactive) | > 30 µM (inactive) | > 30 µM (inactive) | > 30 µM (inactive) |  | > 30 µM (inactive) | > 30 µM (inactive) | > 30 µM (inactive) | > 30 µM (inactive)
